Experimental data taken from patent publication US7135326B2, “UDP-glucosyltransferases” (E. I. du Pont de Nemours and Company, priority 2002, dated 2006).

Tests used:
[1] = molecular target: T1, Grape (Vitis sp.) UDP-glucosyltransferase (Grape GT), wild type, SEQ ID NO:18 (Vitis vinifera, UniProt F6H660); test: Kinetic analysis of purified recombinant Grape GT (spectrophotometric assay at 304 nm); type: biochemical; conditions: saturated with pHBA; 25° C., pH 7.3, 10 mM UDP-glucose
T1 construct: cell-free extract and purified recombinant protein
T1 sequence (F6H660 1-478): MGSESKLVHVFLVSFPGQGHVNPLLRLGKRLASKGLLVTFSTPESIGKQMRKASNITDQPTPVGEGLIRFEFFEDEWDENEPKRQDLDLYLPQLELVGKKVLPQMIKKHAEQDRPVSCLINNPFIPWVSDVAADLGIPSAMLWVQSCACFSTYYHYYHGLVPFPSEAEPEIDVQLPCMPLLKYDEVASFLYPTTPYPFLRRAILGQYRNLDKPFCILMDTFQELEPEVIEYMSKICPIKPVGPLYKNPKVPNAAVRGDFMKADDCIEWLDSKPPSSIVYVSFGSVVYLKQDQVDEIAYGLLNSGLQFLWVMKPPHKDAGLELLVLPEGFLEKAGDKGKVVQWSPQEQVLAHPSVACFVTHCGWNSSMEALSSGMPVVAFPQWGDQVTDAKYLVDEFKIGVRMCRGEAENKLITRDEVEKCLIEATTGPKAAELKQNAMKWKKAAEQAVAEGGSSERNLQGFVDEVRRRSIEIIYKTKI
Protocol: Turnover number for the present enzyme is determined according to principles well known in the art. […] Using the protein concentration as determined in μmols in the assay, one can determine how many μmols product are formed using 1.0 μmols enzyme in a fixed time period such as a second (i.e., how many times catalytic turnover occurred).
Initial rates of product formation were measured at 25° C. over a wide range of substrate concentrations using the spectrophotometric assay (see Example 4).

[2] = molecular target: T1, Grape (Vitis sp.) UDP-glucosyltransferase (Grape GT), wild type, SEQ ID NO:18; test: Substrate inhibition of Grape GT in cell-free extract (initial rates, Table 2); type: biochemical; conditions: 10 mM pHBA; 25° C., pH 7.3, 10 mM UDP-glucose; data of Table 2
Protocol: For protein production, the resulting recombinant strains were grown at 22° C. in 50 mL of LB media that contained kanamycin (50 μg/mL). At an A600 nm of ˜0.6, isopropyl-1-thio-β-D-galactopyranoside was added to a final concentration of 0.2 mM. Following a 22-h induction period at the same temperature, the cells were harvested by centrifugation and stored at −80° C. for subsequent manipulation as described below.
The frozen cell pellets were resuspended in 1.0 mL of a solution containing 100 mM Tris-HCl (pH 7.7), 5 mM MgSO4, 1 mM dithiothreitol, 0.03 mg/mL DNAse I, 0.5 mM phenylmethanesulfonyl fluoride, and passed once through a French pressure cell at 20,000 psi. […] Protein concentrations were determined by the Bradford Method using bovine serum albumin as a standard.
The second assay is based on the increase in absorbance at 368 nm that accompanies the formation of the glucose ester of sinapic acid. The experimental conditions were the same as those described above, but the test substrate was sinapic acid and product formation was calculated using an extinction coefficient of 5,570 M^−1 that was obtained with the authentic chemically synthesized compound under identical conditions. […]

[3] = tested on: Arabidopsis thaliana glucosyltransferase UGT84A1 (84A1, GT 3, SEQ ID NO:8); conditions: 20° C.; Lim et al. 2002; cited from earlier work
[4] = tested on: Arabidopsis thaliana UDP-glucosyltransferase 75B1; conditions: 20° C.; Lim et al. 2002; cited from earlier work

SMILES: O=C(O)c1ccc(O)cc1 [pHBA, p-Hydroxybenzoic acid]
- turnover number (kcat) [1]: ~10.9 s⁻¹
- substrate inhibition (in words) [2]: little, if any, substrate inhibition
- turnover number with pHBA [3]: ~0.21 sec^−1
- turnover number (formation of the pHBA ester glucoside) [4]: 0.73 sec^−1
